One assay concerns the target T1, USP7-CTD (Homo sapiens, UniProt Q93009).
T1 construct: USP7-CTD (535–1102); His tag (inferred from nickel-NTA purification; vector p15TV-L); made in house; host or cells: E. coli BL21(DE3)mgk
Briefly: GST pull-down, USP7-CTD. The format is binding. As to conditions: for Interaction with USP7-CTD (overlapping GST-ICP0 peptides): GST fusions 250 μg + USP7-CTD 250 μg, 50 mM Tris pH 8.0, 100 mM NaCl, 5 mM DTT, 5% glycerol, overnight 4°C, Coomassie stained gel, Fig 1A/1D, symbols not defined. How it is done:
(§1) Fragments representing USP7-CTD Ubl domains were prepared using ligation independent cloning with In-Fusion (Clontech) in p15TV-L. The boundaries of the Ubl domain constructs are Ubl12 (535–776), Ubl123 (535–889), Ubl345 (776–1102), Ubl45 (886–1102) and USP7-CTD (535–1102). Plasmids expressing USP7-NTD, USP7, and myc-USP7 WT (pCANmycUSP7) were described previously. USP7 mutants E759A, D762A, D764A and D762A/D764A in Ubl123 were synthesized (Genscript) and inserted into the pET15b plasmid. USP7 mutants E759A, D762A, D764A, D762A/D764A and D762R/D764R in USP7-CTD were prepared by ACGT Corporation. The D762R/D764R mutant was then sub-cloned into wild-type pCANmycUSP7 for co-IP assays. The mammalian ICP0 expression construct pCI-110 ICP0 was obtained from Roger Everett.
(§2) The ICP0, GMPS and UHRF1 WT and mutant peptides were cloned into pGEX-2TK and expressed in E. coli BL21(DE3). GST-ICP0 594–775 was obtained from Roger Everett. The GST-ICP0 or GST-GMPS or GST-UHRF1 or GST-ICP0 594–775 cell pellets from 500 ml of LB broth were re-suspended with PBS and lysed using sonication. The cleared lysates were applied to 500 μl of equilibrated glutathione-sepharose beads and incubated with rocking for 60 min at 4°C. Unbound proteins were removed by washing with PBS. Bound proteins were eluted with 50 mM Tris pH 8.0 and 100 mM NaCL containing 30 mM reduced glutathione. Equal amounts (250 μg) of the various USP7 proteins were incubated with 250 μg of the GST-ICP0 or GST-GMPS or GST-UHRF1 or GST-ICP0 594–775 peptides in 50 mM Tris pH 8.0, 100 mM NaCl, 5 mM DTT, 5% glycerol, 0.1 mM Benzamidine and 0.05 mM PMSF, applied to equilibrated glutathione-sepharose beads and incubated overnight with rocking at 4°C. After extensive washing, bound proteins were eluted with 50 mM Tris pH 8.0 and 100 mM NaCl containing 30 mM reduced glutathione.

Another assay concerns FL-USP7. Nature of the assay: GST pull-down, USP7-FL. It counts as binding, human. Conditions: GST fusions 250 μg + USP7 250 μg, 50 mM Tris pH 8.0, 100 mM NaCl, 5 mM DTT, 5% glycerol, overnight 4°C; Coomassie stained gel; Fig 1A/1C; symbols not defined. As to the method: The USP7 binding region is found within ICP0 residues 594–633 and mutagenesis studies have shown that K620 is essential for the interaction. In order to facilitate crystallization and structure determination, we set out to identify a shorter peptide that is capable of binding to USP7. To this end, a series of overlapping GST-ICP0 fusions (591–605, 595–609, 599–613, 603–617, 607–621, 611–625, 615–629, 619–633) were prepared (see Fig 1A for sequence details) and used in GST pull-down assays. […] Overall, our GST pull-down assays identified ICP0 residues between 619 and 629 as important mediators of USP7 binding in agreement with a previous study.
Next we determined which region of USP7-CTD interacted with the ICP0 615–629 peptide. FL-USP7, USP7-CTD as well as Ubl12, Ubl123, Ubl345 and Ubl45 (Fig 1B) were used as prey in GST pull-down assays using GST-ICP0 615–629. FL-USP7 and USP7-CTD were used as positive controls while GST alone and USP7-NTD were used as negative controls.
as §2

Assay [1] deals with myc-tagged D762R/D764R (MRGR) USP7. Nature of the assay: Co-immunoprecipitation with myc-tagged D762R/D764R (MRGR) USP7 from 293T cells. It counts as cell-based, human. Conditions: anti-myc IP; for binding relative to recovery with WT USP7: D762R/D764R mutant, endogenous protein, multiple experiments, Fig 5B; for recovery with D762R/D764R USP7 (co-IP), in words: Western blot, Fig 5. How it is done:
(§3) 293T cells were grown in Dulbecco’s modified Eagle’s medium (DMEM) (Gibco) with 10% fetal calf serum. 293T cells at 70% confluence in a 10-cm-diameter dish were transfected with 10 μg pCANmycUSP7 expressing WT USP7 or D762R/D764R (MRGR) USP7 or with pcDNA3.1 (negative control), in each case using 20 μl PolyJet (SignaGen Laboratories) transfection reagent. Cells were transferred to a 15-cm-diameter dish 24 h post-transfection and harvested 48 h post-transfection. For experiments on USP7-ICP0 interactions, 293T cells were co-transfected with 1 μg pCANmycUSP7 expressing WT or D762R/D764R (MRGR) USP7 and either 1 μg pCI-110 ICP0 or 1 μg pcDNA3.1. For controls lacking USP7, 1 μg pCI-110 ICP0 was co-transfected with 1 μg pcDNA3.1. In each case 4 μl PolyJet (SignaGen Laboratories) transfection reagent was used.
Protein samples were subjected to SDS-PAGE and transferred to nitrocellulose. Membranes were blocked in 5% skim milk in Tris-buffered saline with 1% Tween (TBS-T) and then incubated with antibodies against ICP0 (H1A027 from Virusys Corporation; 1:5000 dilution), myc (sc-40 from Santa Cruz Biotechnology; 1:5000 dilution), NP95/UHRF1 (A301-470A from Bethyl Laboratories; 1:1000 dilution), GMPS (rabbit serum raised against full-length GMPS [17]; 1:5000 dilution) and actin (MA5-15739 from Pierce; 1:20,000 dilution). After washing, blots were probed with goat anti-mouse or goat anti-rabbit peroxidase (Santa Cruz Biotechnology; 1:5000 dilution) and developed using chemiluminescence reagents (Santa Cruz biotechnology).
293T cells transfected as described above were washed in phosphate-buffered saline (PBS) and lysed on ice for 45 min in a 4x volume of RIPA buffer (50 mM Tris-HCl [pH 8], 150 mM NaCl, 0.1% sodium deoxycholate, 0.5% NP-40) with complete protease inhibitors (Sigma P8340), followed by centrifugation. 1 mg of each clarified lysate was incubated with 1 μg of anti-myc antibody for 1h, followed by incubation with 30 μl of A/G PLUS agarose resin (Santa Cruz Biotechnology) for 2 h at 4°C with end-over-end rotation. The resin was harvested by centrifugation, washed in RIPA buffer, and then boiled in SDS loading buffer. Immunoprecipitated proteins were separated by SDS-PAGE and analyzed by Western blotting, as described above.
Background: In western blotting, separated proteins are transferred to a membrane and probed.

The next assay relates to myc-tagged WT USP7. Nature of the assay: Co-immunoprecipitation with myc-tagged WT USP7 from 293T cells. The format is cell-based, human. Conditions: anti-myc IP, endogenous protein, Western blot, Fig 5B. How it is done: as §3
Protein samples were subjected to SDS-PAGE and transferred to nitrocellulose. […]
293T cells transfected as described above were washed in phosphate-buffered saline (PBS) and lysed on ice for 45 min in a 4x volume of RIPA buffer (50 mM Tris-HCl [pH 8], 150 mM NaCl, 0.1% sodium deoxycholate, 0.5% NP-40) with complete protease inhibitors (Sigma P8340), followed by centrifugation. […] Immunoprecipitated proteins were separated by SDS-PAGE and analyzed by Western blotting, as described above.

The next assay concerns the target T2, USP7 Ubl123 (Homo sapiens, UniProt Q93009).
T2 construct: Ubl123 (535–889); His tag (inferred from nickel-NTA purification; vector p15TV-L); made in house; host or cells: E. coli BL21(DE3)mgk
Briefly: GST pull-down, Ubl123. It counts as binding. Conditions: mutations within ICP0 615–629, Fig 3D. How it is done: as §1, §2

Another assay deals with USP7-CTD mutant D764A. Briefly: GST pull-down, USP7-CTD D764A. The format is binding, human. How it is done: as §1
The ICP0, GMPS and UHRF1 WT and mutant peptides were cloned into pGEX-2TK and expressed in E. coli BL21(DE3). GST-ICP0 594–775 was obtained from Roger Everett. The GST-ICP0 or GST-GMPS or GST-UHRF1 or GST-ICP0 594–775 cell pellets from 500 ml of LB broth were re-suspended with PBS and lysed using sonication. The cleared lysates were applied to 500 μl of equilibrated glutathione-sepharose beads and incubated with rocking for 60 min at 4°C. Unbound proteins were removed by washing with PBS. Bound proteins were eluted with 50 mM Tris pH 8.0 and 100 mM NaCL containing 30 mM reduced glutathione. […]

The test system of the next assay is USP7-CTD mutant D762A. Briefly: GST pull-down, USP7-CTD D762A. The format is binding, human. As to the method: as §1, §2
Assay [2] has as its system USP7-CTD mutant D762A/D764A. Nature of the assay: GST pull-down, USP7-CTD D762A/D764A. It counts as binding, human. As to the method:
as §1, §2

No end group written: not given here.

T1 sequence (Q93009 535-1102): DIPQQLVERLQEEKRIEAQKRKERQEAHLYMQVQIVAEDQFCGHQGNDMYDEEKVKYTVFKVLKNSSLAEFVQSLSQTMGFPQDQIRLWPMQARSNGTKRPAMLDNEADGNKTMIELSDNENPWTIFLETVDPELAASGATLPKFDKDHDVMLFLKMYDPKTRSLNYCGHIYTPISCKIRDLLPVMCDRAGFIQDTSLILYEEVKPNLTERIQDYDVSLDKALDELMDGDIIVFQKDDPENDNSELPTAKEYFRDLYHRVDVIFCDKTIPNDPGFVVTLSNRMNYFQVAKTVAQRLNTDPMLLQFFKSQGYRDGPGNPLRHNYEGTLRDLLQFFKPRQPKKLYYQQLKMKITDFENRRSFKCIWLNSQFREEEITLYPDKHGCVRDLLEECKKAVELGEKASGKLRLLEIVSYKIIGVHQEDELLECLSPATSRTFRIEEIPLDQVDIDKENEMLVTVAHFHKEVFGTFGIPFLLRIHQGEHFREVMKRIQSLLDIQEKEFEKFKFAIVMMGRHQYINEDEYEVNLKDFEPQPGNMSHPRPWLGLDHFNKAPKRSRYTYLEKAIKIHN
T2 sequence (Q93009 535-889): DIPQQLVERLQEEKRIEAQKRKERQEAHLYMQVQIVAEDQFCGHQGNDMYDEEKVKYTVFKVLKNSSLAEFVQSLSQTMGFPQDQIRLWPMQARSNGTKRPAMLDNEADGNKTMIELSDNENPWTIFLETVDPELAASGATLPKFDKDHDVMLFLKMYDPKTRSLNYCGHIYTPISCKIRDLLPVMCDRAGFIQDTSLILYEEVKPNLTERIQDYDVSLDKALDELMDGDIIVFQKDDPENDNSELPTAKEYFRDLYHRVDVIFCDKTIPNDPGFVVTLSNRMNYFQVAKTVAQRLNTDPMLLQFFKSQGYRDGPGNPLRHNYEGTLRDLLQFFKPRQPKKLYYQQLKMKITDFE

“AASGPRGPRKCARKT [ICP0 611–625, GST-ICP0 fusion of ICP0 residues 611–625]”: the “Interaction with USP7-CTD (overlapping GST-ICP0 peptides)” value at USP7-CTD is “interacted with FL-USP7 and USP7-CTD but not to the same extent”. Further, the “Interaction with USP7-FL (overlapping GST-ICP0 peptides)” value with FL-USP7 is “interacted with FL-USP7 and USP7-CTD but not to the same extent”.
On to “GMPS: endogenous GMP synthase in 293T cells”, for which, in assay [1], the “binding relative to recovery with WT USP7” value was 35% (± 16%) and the “recovery with D762R/D764R USP7 (co-IP), in words” value is on record as “significantly decreased”. Besides, the “recovery with WT USP7 (co-IP)” value in the assay on myc-tagged WT USP7 is listed as “efficiently recovered”.
In the case of “R619A/K620A (PRGPAACARKTRHAE; also: GST fusion partner not in chain)”, the “Binding of mutant GST-ICP0 peptides to Ubl123” value (from here on “Binding … to Ubl123”) with USP7 Ubl123 was “lacked detectable binding”.
Regarding “RKCARKTRHAETSGA [ICP0 619–633, GST-ICP0 fusion of ICP0 residues 619–633]”, the “Interaction with USP7-CTD (overlapping GST-ICP0 peptides)” value on USP7-CTD is “strongest interaction”. For the same substance, in the assay with FL-USP7, the “Interaction with USP7-FL (overlapping GST-ICP0 peptides)” value is given as “strongest interaction”.
As to “K620A/K624A (PRGPRACARATRHAE; also: GST fusion partner not in chain)”, the “Binding … to Ubl123” value in the assay with USP7 Ubl123 was “lacked detectable binding”.
On the same count and under the same terms, the value for “R623A/K624A (PRGPRKCAAATRHAE; also: GST fusion partner not in chain)” was “lacked detectable binding”.
“UHRF1: endogenous epigenetic regulator UHRF1 in 293T cells, an E3 ligase”: in assay [1], the “binding relative to recovery with WT USP7” value is reported as 21% (± 6%) and the “recovery with D762R/D764R USP7 (co-IP), in words” value was “significantly decreased”. The “recovery with WT USP7 (co-IP)” value in the assay on myc-tagged WT USP7 is listed as “efficiently recovered”.
On to “DRTPRKRISKTLN [GST-GMPS peptide, GST fusion of GMPS residues 316–328]”, for which the “Binding to WT USP7-CTD” value on USP7-CTD (GST pull-down, GST-ICP0 594–775, GST-GMPS and GST-UHRF1 peptides and mutants, Fig 3H, 4C-F) was “interacted with USP7-CTD”. The “Binding to USP7-CTD mutant D764A” value in the assay on USP7-CTD mutant D764A is on record as “disrupted binding”. Moreover, the “Binding to USP7-CTD mutant D762A” value in the assay on USP7-CTD mutant D762A is given as “disrupted binding”. The “Binding to USP7-CTD mutant D762A/D764A” value in assay [2] is recorded as “disrupted binding”.
On to “K620A (PRGPRACARKTRHAE; also: GST fusion partner not in chain)”, for which the “Binding … to Ubl123” value in the assay with USP7 Ubl123 is recorded as “lacked detectable binding”.
The same measure, in the same setting: the result for “K624A (PRGPRKCARATRHAE; also: GST fusion partner not in chain)” reads “lacked detectable binding”; that for RRKK, “lacked detectable binding”.

Values taken from publication PMC4457826 (PLoS Pathogens, 2015).
